The values below come from patent publication US20210149304A1, “PHOTOSENSITIVE RESIN COMPOSITION, CURED FILM, ELEMENT COMPRISING CURED FILM, ORGANIC EL DISPLAY DEVICE COMPRISING CURED FILM, METHOD FOR PRODUCING CURED FILM, AND METHOD FOR PRODUCING ORGANIC EL DISPLAY DEVICE” (TORAY INDUSTRIES, INC., priority 2017, published 2021).

SMILES strings stand for the structures.

The first data set in a line: physchem.
Details: not given
The procedure:
The acid dissociation constant (pKa) is a logarithmic value of the inverse number of the acid dissociation constant pKa in a dilute aqueous solution at 25° C. In cases of multistep dissociation, the dissociation constant in the first step (that is, pKa1) is employed.
In the compound (E2) having a phenolic hydroxyl group indicating an acid dissociation constant pKa of 6.0 to 9.5 at 25° C., the acid dissociation constant (pKa) is a logarithmic value of the inverse number of the acid dissociation constant in a dilute aqueous solution at 25° C. In cases of multistep dissociation, the dissociation constant in the first step (that is, pKa1) is employed. […] The acid dissociation constant pKa is preferably not less than 6.3, more preferably not less than 6.6, still more preferably not less than 7.0.
`Cc1cc(O)c(C(C)(C)C)cc1C(C)CC(c1cc(C(C)(C)C)c(O)cc1C)c1cc(C(C)(C)C)c(O)cc1C` (stereo not drawn) [AO-30, 1,1,3-tris(2-methyl-4-hydroxy-5-tert-butylphenyl)butane] had a pKa of 11.6.
The same measure, in the same setting: then `Cc1cc(CCC(=O)OCC(C)(C)C2OCC3(CO2)COC(C(C)(C)COC(=O)CCc2cc(C)c(O)c(C(C)(C)C)c2)OC3)cc(C(C)(C)C)c1O` (stereo not drawn) [AO-80, 3,9-bis[1,1-dimethyl-2-[(3-tert-butyl-4-hydroxy-5-methylphenyl)propionyloxy]ethyl]-2,4,8,10-tetraoxaspiro[5.5]undecane], with 12.
With `Oc1ccc(C(c2ccc(O)cc2)(C(F)(F)F)C(F)(F)F)cc1` [E(i), bisphenol AF], the pKa was 8.7 and the “pKa (acid dissociation constant)” value was 8.7.
Consider `O=C(c1ccc(O)cc1)c1ccc(O)cc1` [E(iii), 4,4′-dihydroxybenzophenone], for which the pKa worked out at 7.7.
Compound `O=C(c1ccccc1O)c1ccccc1O` [E(iv), 2,2′-dihydroxybenzophenone] came in with a pKa of 7.3.
On the same count and under the same terms, then `Oc1ccc(C(F)(F)F)cc1` [E(v), 4-(trifluoromethyl)phenol], with 8.5.
Same read-out and setting: next, `CC(c1ccc(O)cc1)(c1ccc(O)cc1)c1ccc(O)cc1` [E(vi), 1,1,1-tris(4-hydroxyphenyl)ethane]: 10.

The same data set, now with this note: at 25° C., dilute aqueous solution, first step pKa1.
As for `O=S(=O)(c1ccc(O)cc1)c1ccc(O)cc1` [E(ii), bisphenol S], the “pKa (acid dissociation constant)” value came to 7.6.
